We go through six compounds from ChEMBL document CHEMBL3886762, “Substituted pyridizinone derivatives as PDE10 inhibitors” (2016).

The experiment addresses cAMP and cAMP-inhibited cGMP 3',5'-cyclic phosphodiesterase 10A (Homo sapiens, UniProt Q9Y233). The experiment in a line: Fluorescence Polarization Assay: The fluorescence polarization assay for cyclic nucleotide phosphodiesterases was performed using an IMAP® FP kit supplied by Molecular Devices, Sunnyvale, Calif. (product #R8139). IMAP® technology has been applied previously to phosphodiesterase assays (Huang, W., et al., J. Biomol Screen, 2002, 7: 215). (In fluorescence polarisation assays a small probe gives low polarisation when free and higher when bound to something large.)

Sequence of cAMP and cAMP-inhibited cGMP 3',5'-cyclic phosphodiesterase 10A (Q9Y233 whole entry): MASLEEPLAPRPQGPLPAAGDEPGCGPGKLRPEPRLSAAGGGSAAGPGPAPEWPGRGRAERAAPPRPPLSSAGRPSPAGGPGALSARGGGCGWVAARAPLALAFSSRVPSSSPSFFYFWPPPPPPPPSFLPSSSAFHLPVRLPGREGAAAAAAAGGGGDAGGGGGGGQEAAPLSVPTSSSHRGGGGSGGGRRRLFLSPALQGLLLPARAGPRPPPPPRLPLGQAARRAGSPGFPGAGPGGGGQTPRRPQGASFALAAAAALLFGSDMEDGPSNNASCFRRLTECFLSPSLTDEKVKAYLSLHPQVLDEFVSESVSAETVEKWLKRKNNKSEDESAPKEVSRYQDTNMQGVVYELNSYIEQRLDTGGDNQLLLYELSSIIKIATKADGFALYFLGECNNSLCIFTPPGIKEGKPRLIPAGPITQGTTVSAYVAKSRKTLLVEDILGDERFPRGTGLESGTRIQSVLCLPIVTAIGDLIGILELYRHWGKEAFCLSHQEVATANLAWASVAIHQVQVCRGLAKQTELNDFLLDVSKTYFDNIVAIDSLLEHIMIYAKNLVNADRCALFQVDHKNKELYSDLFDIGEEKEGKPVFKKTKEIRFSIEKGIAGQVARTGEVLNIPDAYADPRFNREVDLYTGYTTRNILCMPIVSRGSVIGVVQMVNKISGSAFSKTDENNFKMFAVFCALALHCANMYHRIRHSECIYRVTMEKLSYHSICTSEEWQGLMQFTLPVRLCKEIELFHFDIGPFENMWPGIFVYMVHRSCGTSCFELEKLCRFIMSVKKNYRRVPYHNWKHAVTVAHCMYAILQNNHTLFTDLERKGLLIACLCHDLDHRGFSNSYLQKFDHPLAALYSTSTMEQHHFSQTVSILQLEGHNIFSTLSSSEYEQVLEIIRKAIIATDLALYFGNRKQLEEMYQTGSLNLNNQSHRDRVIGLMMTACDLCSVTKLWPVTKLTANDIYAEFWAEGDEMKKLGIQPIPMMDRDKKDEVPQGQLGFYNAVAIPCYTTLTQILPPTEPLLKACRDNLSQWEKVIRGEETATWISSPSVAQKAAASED

Compound `Cc1nnc(CNc2cc(OC[C@H]3C[C@@H]3c3ccc4c(n3)CCC4)nn(C)c2=O)s1` showed a Ki of 2 pM. As for `Cc1nnc(CNc2cc(OC[C@H]3C[C@@H]3c3ccc4ccccc4n3)nn(C)c2=O)s1`, the figure is 1 pM; as for `Cc1nnc(CNc2cc(OC[C@H]3C[C@@H]3c3nn(C)c4ccccc34)nn(C)c2=O)s1`, 905 pM; as for `Cc1nnc(CNc2cc(OC[C@H]3C[C@@H]3c3ccn(C)n3)nn(C)c2=O)s1`, 100 pM. `Cc1ccc(CNc2cc(OC[C@H]3C[C@@H]3c3ccn(C)n3)nn(C)c2=O)nc1`: the Ki turned out to be 473 pM. As for `COc1ccc([C@H]2C[C@@H]2COc2cc(NCc3cnn(C(F)F)c3)c(=O)n(C)n2)nc1`, the figure is 144 pM.

Broadly, the Ki is a measure of affinity in units of concentration, obtained from inhibition or displacement. Low values mean a stronger hold on the target, high ones a looser hold on the target.
